In ChEMBL document CHEMBL1133032, “Combinatorial approach to lead optimization of a novel hexapeptide with antifungal activity” (Bioorg Med Chem Lett, 2000):
Converted amounts (≈) assume the structure as drawn. Square brackets hold non-standard residues; d marks the D form. Peptide text beside a SMILES is read from it.

Each molecule was assayed on Cryptococcus neoformans (assay: Lowest concentration of compound that substantially inhibited the growth of Cryptococcus neoformans after 48 hr).
Assay type: functional

SMILES | MIC [µM]
CC[C@H](C)[C@H](NC(=O)[C@@H](Cc1ccccc1)NC(=O)[C@@H](Cc1c[nH]c2ccccc12)NC(=O)[C@@H](N)CCCN=C(N)N)C(=O)N[C@H](Cc1ccccc1)C(=O)N[C@@H](CCCCN)C(N)=O [listing 1 of 2 here] | 6.92 (≈ 6.19 µg/mL)
CC[C@H](C)[C@H](NC(=O)[C@@H](Cc1ccccc1)NC(=O)[C@@H](Cc1c[nH]c2ccccc12)NC(=O)[C@@H](N)CCCN=C(N)N)C(=O)N[C@H](Cc1ccccc1)C(=O)NCC(N)=O [listing 1 of 2 here] | 15.2 (≈ 12.5 µg/mL)
CC[C@H](C)[C@H](NC(=O)[C@@H](Cc1ccccc1)NC(=O)[C@@H](Cc1c[nH]c2ccccc12)NC(=O)[C@@H](N)CCCN=C(N)N)C(=O)N[C@H](Cc1ccccc1)C(=O)N[C@@H](Cc1ccc(O)cc1)C(N)=O [listing 1 of 2 here] | 13.4 (≈ 12.5 µg/mL)
CC[C@H](C)[C@H](NC(=O)[C@@H](Cc1ccccc1)NC(=O)[C@@H](Cc1c[nH]c2ccccc12)NC(=O)[C@@H](N)CCCN=C(N)N)C(=O)N[C@H](Cc1ccccc1)C(=O)N[C@@H](Cc1c[nH]c2ccccc12)C(N)=O [listing 1 of 2 here] | 13.1 (≈ 12.5 µg/mL)
CC[C@H](C)[C@H](NC(=O)[C@@H](Cc1ccccc1)NC(=O)[C@@H](Cc1c[nH]c2ccccc12)NC(=O)[C@@H](N)CCCN=C(N)N)C(=O)N[C@H](Cc1ccccc1)C(=O)N[C@H](C(N)=O)C(C)C [listing 1 of 2 here] | 14.4 (≈ 12.5 µg/mL)
CC[C@H](C)[C@H](NC(=O)[C@@H](Cc1ccccc1)NC(=O)[C@@H](Cc1c[nH]c2ccccc12)NC(=O)[C@@H](N)CCCN=C(N)N)C(=O)N[C@H](Cc1ccccc1)C(=O)N[C@@H](CO)C(N)=O [listing 1 of 2 here] | 14.6 (≈ 12.5 µg/mL)
CC[C@H](C)[C@H](NC(=O)[C@@H](Cc1ccccc1)NC(=O)[C@@H](Cc1c[nH]c2ccccc12)NC(=O)[C@@H](N)CCCN=C(N)N)C(=O)N[C@H](Cc1ccccc1)C(=O)N[C@@H](CCCN=C(N)N)C(N)=O [listing 1 of 2 here] | 6.71 (≈ 6.19 µg/mL)
CC[C@H](C)[C@H](NC(=O)[C@@H](Cc1ccccc1)NC(=O)[C@@H](Cc1c[nH]c2ccccc12)NC(=O)[C@@H](N)CCCN=C(N)N)C(=O)N[C@H](Cc1ccccc1)C(=O)N[C@@H](CCC(N)=O)C(N)=O [listing 1 of 2 here] | 55.9 (≈ 50 µg/mL)
CC[C@H](C)[C@H](NC(=O)[C@@H](Cc1ccccc1)NC(=O)[C@@H](Cc1c[nH]c2ccccc12)NC(=O)[C@@H](N)CCCN=C(N)N)C(=O)N[C@H](Cc1ccccc1)C(=O)N1CCC[C@H]1C(N)=O [listing 1 of 2 here] | 28.9 (≈ 25 µg/mL)
CC[C@H](C)[C@H](NC(=O)[C@@H](Cc1ccccc1)NC(=O)[C@@H](Cc1c[nH]c2ccccc12)NC(=O)[C@@H](N)CCCN=C(N)N)C(=O)N[C@H](Cc1ccccc1)C(=O)N[C@@H](CC(N)=O)C(N)=O [listing 1 of 2 here] | 14.2 (≈ 12.5 µg/mL)
CC[C@H](C)[C@H](NC(=O)[C@@H](Cc1ccccc1)NC(=O)[C@@H](Cc1c[nH]c2ccccc12)NC(=O)[C@@H](N)CCCN=C(N)N)C(=O)N[C@H](Cc1ccccc1)C(=O)N[C@@H](CCSC)C(N)=O [listing 1 of 2 here] | 27.8 (≈ 25 µg/mL)
CC[C@H](C)[C@H](NC(=O)[C@@H](Cc1ccccc1)NC(=O)[C@@H](Cc1c[nH]c2ccccc12)NC(=O)[C@@H](N)CCCN=C(N)N)C(=O)N[C@H](Cc1ccccc1)C(=O)N[C@@H](CC(C)C)C(N)=O [listing 1 of 2 here] | 7.04 (≈ 6.2 µg/mL)
CC[C@H](C)[C@H](NC(=O)[C@@H](Cc1ccccc1)NC(=O)[C@@H](Cc1c[nH]c2ccccc12)NC(=O)[C@@H](N)CCCN=C(N)N)C(=O)N[C@H](Cc1ccccc1)C(=O)N[C@@H](Cc1ccccc1)C(N)=O [listing 1 of 2 here] | 13.7 (≈ 12.5 µg/mL)
CC[C@H](C)[C@H](NC(=O)[C@@H](Cc1ccccc1)NC(=O)[C@@H](Cc1c[nH]c2ccccc12)NC(=O)[C@@H](N)CCCN=C(N)N)C(=O)N[C@H](Cc1ccccc1)C(=O)N[C@@H](CCC(=O)O)C(N)=O [listing 1 of 2 here] | 55.8 (≈ 50 µg/mL)
CC[C@H](C)[C@H](NC(=O)[C@@H](Cc1ccccc1)NC(=O)[C@@H](Cc1c[nH]c2ccccc12)NC(=O)[C@@H](N)CCCN=C(N)N)C(=O)N[C@H](Cc1ccccc1)C(=O)N[C@@H](CC(=O)O)C(N)=O [listing 1 of 2 here] | 113 (≈ 100 µg/mL)
CC[C@H](C)[C@H](NC(=O)[C@@H](Cc1ccccc1)NC(=O)[C@@H](Cc1c[nH]c2ccccc12)NC(=O)[C@@H](N)CCCN=C(N)N)C(=O)N[C@H](Cc1ccccc1)C(=O)N[C@@H](C)C(N)=O [listing 1 of 2 here] | 14.9 (≈ 12.5 µg/mL)
CC[C@H](C)[C@H](NC(=O)[C@@H](Cc1ccccc1)NC(=O)[C@@H](NC(=O)[C@@H](Cc1ccccc1)NC(=O)[C@@H](Cc1c[nH]c2ccccc12)NC(=O)[C@@H](N)CCCN=C(N)N)[C@@H](C)CC)C(N)=O [listing 1 of 2 here] | 28.4 (≈ 25 µg/mL)
CC[C@H](C)[C@H](NC(=O)[C@@H](Cc1ccccc1)NC(=O)[C@@H](Cc1c[nH]c2ccccc12)NC(=O)[C@@H](N)CCCN=C(N)N)C(=O)N[C@H](Cc1ccccc1)C(=O)N[C@H](C(N)=O)[C@@H](C)O [listing 1 of 2 here] | 14.4 (≈ 12.5 µg/mL)
NCCCC[C@H](NC(=O)[C@@H](Cc1ccccc1)NC(=O)[C@H](Cc1ccccc1)NC(=O)[C@@H](Cc1ccccc1)NC(=O)[C@@H](Cc1c[nH]c2ccccc12)NC(=O)[C@@H](N)Cc1c[nH]cn1)C(N)=O (H-H[dW][dF]F[dF]K-NH2) | 6.81 (≈ 6.2 µg/mL)
CC[C@H](C)[C@H](NC(=O)[C@@H](Cc1ccccc1)NC(=O)[C@@H](Cc1c[nH]c2ccccc12)NC(=O)[C@@H](N)CCCN=C(N)N)C(=O)N[C@H](Cc1ccccc1)C(=O)N[C@@H](Cc1c[nH]cn1)C(N)=O (H-R[dW][dF]I[dF]H-NH2) [listing 1 of 2 here] | 6.85 (≈ 6.19 µg/mL)

These molecules were tested on Candida albicans (assay: Antifungal activity against Candida albicans using twofold microbroth dilution technique.).
Assay type: functional, organism-based

SMILES | IC50 [µM]
CC[C@H](C)[C@H](NC(=O)[C@@H](Cc1ccccc1)NC(=O)[C@@H](Cc1c[nH]c2ccccc12)NC(=O)[C@@H](N)CCCN=C(N)N)C(=O)N[C@H](Cc1ccccc1)C(=O)N[C@@H](CCCCN)C(N)=O [listing 2 of 2 here] | 14.4
CC[C@H](C)[C@H](NC(=O)[C@@H](Cc1ccccc1)NC(=O)[C@@H](Cc1c[nH]c2ccccc12)NC(=O)[C@@H](N)CCCN=C(N)N)C(=O)N[C@H](Cc1ccccc1)C(=O)NCC(N)=O [listing 2 of 2 here] | 33.9
CC[C@H](C)[C@H](NC(=O)[C@@H](Cc1ccccc1)NC(=O)[C@@H](Cc1c[nH]c2ccccc12)NC(=O)[C@@H](N)CCCN=C(N)N)C(=O)N[C@H](Cc1ccccc1)C(=O)N[C@@H](Cc1ccc(O)cc1)C(N)=O [listing 2 of 2 here] | 15.9
CC[C@H](C)[C@H](NC(=O)[C@@H](Cc1ccccc1)NC(=O)[C@@H](Cc1c[nH]c2ccccc12)NC(=O)[C@@H](N)CCCN=C(N)N)C(=O)N[C@H](Cc1ccccc1)C(=O)N[C@@H](Cc1c[nH]c2ccccc12)C(N)=O [listing 2 of 2 here] | 25.4
CC[C@H](C)[C@H](NC(=O)[C@@H](Cc1ccccc1)NC(=O)[C@@H](Cc1c[nH]c2ccccc12)NC(=O)[C@@H](N)CCCN=C(N)N)C(=O)N[C@H](Cc1ccccc1)C(=O)N[C@H](C(N)=O)C(C)C [listing 2 of 2 here] | > 28.4
CC[C@H](C)[C@H](NC(=O)[C@@H](Cc1ccccc1)NC(=O)[C@@H](Cc1c[nH]c2ccccc12)NC(=O)[C@@H](N)CCCN=C(N)N)C(=O)N[C@H](Cc1ccccc1)C(=O)N[C@@H](CO)C(N)=O [listing 2 of 2 here] | > 14.9
CC[C@H](C)[C@H](NC(=O)[C@@H](Cc1ccccc1)NC(=O)[C@@H](Cc1c[nH]c2ccccc12)NC(=O)[C@@H](N)CCCN=C(N)N)C(=O)N[C@H](Cc1ccccc1)C(=O)N[C@@H](CCCN=C(N)N)C(N)=O [listing 2 of 2 here] | > 12.5
CC[C@H](C)[C@H](NC(=O)[C@@H](Cc1ccccc1)NC(=O)[C@@H](Cc1c[nH]c2ccccc12)NC(=O)[C@@H](N)CCCN=C(N)N)C(=O)N[C@H](Cc1ccccc1)C(=O)N[C@@H](CCC(N)=O)C(N)=O [listing 2 of 2 here] | 30.2
CC[C@H](C)[C@H](NC(=O)[C@@H](Cc1ccccc1)NC(=O)[C@@H](Cc1c[nH]c2ccccc12)NC(=O)[C@@H](N)CCCN=C(N)N)C(=O)N[C@H](Cc1ccccc1)C(=O)N1CCC[C@H]1C(N)=O [listing 2 of 2 here] | 51.4
CC[C@H](C)[C@H](NC(=O)[C@@H](Cc1ccccc1)NC(=O)[C@@H](Cc1c[nH]c2ccccc12)NC(=O)[C@@H](N)CCCN=C(N)N)C(=O)N[C@H](Cc1ccccc1)C(=O)N[C@@H](CC(N)=O)C(N)=O [listing 2 of 2 here] | > 14.9
CC[C@H](C)[C@H](NC(=O)[C@@H](Cc1ccccc1)NC(=O)[C@@H](Cc1c[nH]c2ccccc12)NC(=O)[C@@H](N)CCCN=C(N)N)C(=O)N[C@H](Cc1ccccc1)C(=O)N[C@@H](CCSC)C(N)=O [listing 2 of 2 here] | 24.5
CC[C@H](C)[C@H](NC(=O)[C@@H](Cc1ccccc1)NC(=O)[C@@H](Cc1c[nH]c2ccccc12)NC(=O)[C@@H](N)CCCN=C(N)N)C(=O)N[C@H](Cc1ccccc1)C(=O)N[C@@H](CC(C)C)C(N)=O [listing 2 of 2 here] | 14.9
CC[C@H](C)[C@H](NC(=O)[C@@H](Cc1ccccc1)NC(=O)[C@@H](Cc1c[nH]c2ccccc12)NC(=O)[C@@H](N)CCCN=C(N)N)C(=O)N[C@H](Cc1ccccc1)C(=O)N[C@@H](Cc1ccccc1)C(N)=O [listing 2 of 2 here] | 13.7
CC[C@H](C)[C@H](NC(=O)[C@@H](Cc1ccccc1)NC(=O)[C@@H](Cc1c[nH]c2ccccc12)NC(=O)[C@@H](N)CCCN=C(N)N)C(=O)N[C@H](Cc1ccccc1)C(=O)N[C@@H](CCC(=O)O)C(N)=O [listing 2 of 2 here] | > 28.4
CC[C@H](C)[C@H](NC(=O)[C@@H](Cc1ccccc1)NC(=O)[C@@H](Cc1c[nH]c2ccccc12)NC(=O)[C@@H](N)CCCN=C(N)N)C(=O)N[C@H](Cc1ccccc1)C(=O)N[C@@H](CC(=O)O)C(N)=O [listing 2 of 2 here] | > 14.9
CC[C@H](C)[C@H](NC(=O)[C@@H](Cc1ccccc1)NC(=O)[C@@H](Cc1c[nH]c2ccccc12)NC(=O)[C@@H](N)CCCN=C(N)N)C(=O)N[C@H](Cc1ccccc1)C(=O)N[C@@H](C)C(N)=O [listing 2 of 2 here] | > 14.9
CC[C@H](C)[C@H](NC(=O)[C@@H](Cc1ccccc1)NC(=O)[C@@H](NC(=O)[C@@H](Cc1ccccc1)NC(=O)[C@@H](Cc1c[nH]c2ccccc12)NC(=O)[C@@H](N)CCCN=C(N)N)[C@@H](C)CC)C(N)=O [listing 2 of 2 here] | 45.6
CC[C@H](C)[C@H](NC(=O)[C@@H](Cc1ccccc1)NC(=O)[C@@H](Cc1c[nH]c2ccccc12)NC(=O)[C@@H](N)CCCN=C(N)N)C(=O)N[C@H](Cc1ccccc1)C(=O)N[C@H](C(N)=O)[C@@H](C)O [listing 2 of 2 here] | > 14.9
NCCCC[C@H](NC(=O)[C@@H](Cc1ccccc1)NC(=O)[C@H](Cc1ccccc1)NC(=O)[C@@H](Cc1ccccc1)NC(=O)[C@@H](Cc1c[nH]c2ccccc12)NC(=O)[C@@H](N)Cc1c[nH]cn1)C(N)=O (H-H[dW][dF]F[dF]K-NH2) | 28.6
CC[C@H](C)[C@H](NC(=O)[C@@H](Cc1ccccc1)NC(=O)[C@@H](Cc1c[nH]c2ccccc12)NC(=O)[C@@H](N)CCCN=C(N)N)C(=O)N[C@H](Cc1ccccc1)C(=O)N[C@@H](Cc1c[nH]cn1)C(N)=O (H-R[dW][dF]I[dF]H-NH2) [listing 2 of 2 here] | 6.85
